The text below walks through data of publication PMC7465886, “4-(N-Alkyl- and -Acyl-amino)-1,2,4-triazole-3-thione Analogs as Metallo-β-Lactamase Inhibitors: Impact of 4-Linker on Potency and Spectrum of Inhibition” (Biomolecules, 2020).

Holding throughout (assay type): biochemical
One test deals with T1, IMP-1 (Serratia marcescens, UniProt P52699).
T1 construct: made in house; host or cells: E. coli BL21(DE3) derivative, pET-9a
Put plainly: MBL inhibition, reporter substrate method, IMP-1. Conditions: read-out: Inhibition of IMP-1 (dash in Ki column). On the procedure:
(§1) Compounds were prepared in DMSO at a final concentration of 50 mM prior to dilution in the assay buffer. The reaction rate was measured as the variation of absorbance observed upon substrate hydrolysis in a UV-Vis spectrophotometer or microplate reader at a wavelength of 300 nm (imipenem, meropenem), 260 nm (cefotaxime), or 482 nm (nitrocefin) and in the presence of a purified MBL enzyme (such as VIM-1, VIM-2, VIM-4, NDM-1, and IMP-1, at a final concentration ranging from 1 to 70 nM).
(§2) These enzymes were overproduced in derivatives of E. coli BL21(DE3) carrying a pET-9 a (IMP-1, VIM-1, VIM-2, and VIM-4) or pET-15 b (NDM-1) vector into which the metallo-β-lactamase-encoding open reading frame was cloned. Bacterial strains were grown in the auto-inducing medium, ZYP-5052, supplemented with 50 μg/mL kanamycin for 24 h at 37 °C [38]. IMP-1, VIM-1, VIM-2, and VIM-4 were purified by ion-exchange and gel filtration chromatography using an AKTA Purifier platform (GE Healthcare, Uppsala, Sweden) as previously described. NDM-1 (residues 37-270) was produced as an amino-terminal 6 xHis-tag fusion protein and was purified using affinity chromatography. After growth for 26 h at 25 °C, bacterial cells were harvested by centrifugation (10,000× g, 30 min, 4 °C), resuspended in 10 mM HEPES buffer (pH 7.5) containing 0.15 M NaCl (buffer A) in one-fifth of the original culture volume, and lysed by sonication. Cellular debris was removed by centrifugation (12,000× g, 40 min, 4 °C). The clarified sample was loaded on a HisTrap HP column (bed volume, 5 mL; GE Healthcare), followed by a wash step (25 mL) with buffer A containing 20 mM imidazole. Proteins were eluted using buffer A containing 350 mM imidazole. The resulting protein sample was desalted (HiPrep 26/10 Desalting column, GE Healthcare) using 20 mM triethanolamine (pH 7.2) supplemented with 50 μM ZnSO4 and concentrated using an Amicon Ultra-15 (MW cut-off, 10 kDa; Millipore, Burlington, MA, USA). The concentrated sample was loaded on a Superdex 75 prep grade column (XK16/100 column; bed volume, 140 mL; GE Healthcare) and the proteins eluted with buffer A containing 50 μM ZnSO4. The active fractions were pooled and stored at −20 °C. The purity of the protein preparations was estimated >95% by SDS-PAGE analysis. The authenticity of the enzyme preparations was confirmed by electron spray ionization mass spectrometry, as previously described.
(§3) The inhibition constants (Ki) were determined on the basis of a model of competitive inhibition by analyzing the dependence of the ratio v0/vi (v0, hydrolysis velocity in the absence of inhibitor; vi, hydrolysis velocity in the presence of inhibitor) as a function of [I] as already described. The slope of the plot of v0/vi vs. [I], which corresponds to Km^S/(Km^S + [S])Ki (where Km^S is the Km value of the reporter substrate and [S] its concentration in the reaction mixture) and allowed the calculation of the Ki value. Alternatively, a Dixon plot analysis was carried out by measuring the initial hydrolysis rates in the presence of variable concentrations of inhibitor and substrate. This allowed Ki values to be determined and supported the hypothesis that the various compounds behaved as competitive inhibitors of the various tested enzymes. The assays were performed in triplicate.

A further test has as its target NDM-1 (Klebsiella pneumoniae, UniProt C7C422). As to the kind of experiment: MBL inhibition, reporter substrate method, NDM-1. On the procedure:
as §1, §2, §3

The next test addresses T2, L1 (Stenotrophomonas maltophilia, UniProt P52700).
T2 construct: made in house
Put plainly: MBL inhibition, L1 (nitrocefin hydrolysis). The note with it: 100 μM inhibitor; read-out: Inhibition of L1 (dash). The procedure: Compounds were prepared as 10 mM solutions in DMSO before dilution with appropriate buffers. Buffers were 25 mM Hepes pH 7.5 for CphA or 25 mM Hepes pH 7.5, 50 µM ZnCl2 for L1. The rates in the absence of inhibitor were not modified by addition of 1% DMSO. CphA and L1 enzymes, purified as previously described, were used at concentrations between 0.2 and 0.8 nM, respectively. The enzyme and the inhibitor (100 µM) were pre-incubated for 30 min in a volume of 495 µL at room temperature. The hydrolysis of a solution of 100 µM imipenem for CphA was monitored by following the absorbance variation at 300 nm using a Specord 50 PLUS spectrophotometer (Analytik Jena, Jena, Germany). For L1, the reporter substrate was nitrocefin (100 µM). The enzyme activity was measured by following the absorbance variation at 482 nm. The substrate hydrolysis was done at 30 °C. The activity was tested by measuring the initial rates in three samples without inhibitor that allowed to determine the percentage of residual β-lactamase activity in the presence of inhibitors. If the residual activity in the presence of 100 µM inhibitor was <30%, the initial rate conditions were used to study the inhibition in the presence of increasing concentrations of compounds (from 1 to 100 µM) and to determine the competitive inhibition constant Ki. The Hanes linearization of the Henri–Michaelis equation was used, and Ki was calculated on the basis of the following equation, v = (Vmax.S)/[S + Km(1 + I/Ki)]. The assays were performed in triplicates.

Chain of NDM-1 (C7C422 37-270 limits assumed): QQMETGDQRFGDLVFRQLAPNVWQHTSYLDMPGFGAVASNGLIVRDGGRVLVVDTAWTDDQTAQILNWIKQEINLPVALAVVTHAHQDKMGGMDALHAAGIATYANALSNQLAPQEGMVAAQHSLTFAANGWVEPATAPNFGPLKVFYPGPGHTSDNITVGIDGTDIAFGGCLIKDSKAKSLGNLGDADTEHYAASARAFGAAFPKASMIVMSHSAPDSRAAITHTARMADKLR
T2 sequence (P52700 34-290): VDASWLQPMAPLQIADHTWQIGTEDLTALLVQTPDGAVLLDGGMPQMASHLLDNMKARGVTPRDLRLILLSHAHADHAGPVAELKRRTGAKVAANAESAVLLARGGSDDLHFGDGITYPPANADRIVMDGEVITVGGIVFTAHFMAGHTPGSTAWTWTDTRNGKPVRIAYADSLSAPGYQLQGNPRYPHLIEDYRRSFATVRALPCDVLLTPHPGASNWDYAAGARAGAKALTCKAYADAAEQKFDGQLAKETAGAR
T1 sequence (P52699 19-246 limits assumed): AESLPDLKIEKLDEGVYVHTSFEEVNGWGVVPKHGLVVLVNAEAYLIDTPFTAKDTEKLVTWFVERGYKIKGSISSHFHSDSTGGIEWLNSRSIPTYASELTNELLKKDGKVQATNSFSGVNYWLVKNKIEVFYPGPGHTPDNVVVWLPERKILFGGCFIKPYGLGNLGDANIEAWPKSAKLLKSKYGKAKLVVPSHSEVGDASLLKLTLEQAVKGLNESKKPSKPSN

In the case of `O=C(O)c1ccccc1CNn1c(-c2ccccc2)n[nH]c1=S` [Compound 1], the inhibition at 100 µM on IMP-1 was under 40%; on NDM-1 (read-out: Inhibition of NDM-1 (dash in Ki column)) it was under 40%; at L1, under 30%. In addition, the “Inhibition of NDM-1 (in words)” value at NDM-1 is “inactive”.

One may read the inhibition as the share of the control response that was lost under treatment.
